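Cultured in 96-well plates, cells were exposed to test compound for 48 hours across five concentrations. Here, GI50 denotes the concentration required for 50% inhibition of growth.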 Activity calls are given as the source filed them. No stated cut-off is given here; in the data, active = GI50 up to about 1.1 µM and inactive = higher.
How the values were obtained:
Assay in all cases: NCI tumour cell line growth inhibition, 48 h
[1] = system: A498
[2] = system: A549
[3] = system: EKVX
[4] = system: HCC 2998
[5] = system: HOP-62
[6] = system: HT-29
[7] = system: LOX IMVI
[8] = system: MCF7
[9] = system: MDA-MB-435
[10] = system: NCI-H226
[11] = system: NCI-H23
[12] = system: NCI-H460
[13] = system: NCI/ADR-RES
[14] = system: OVCAR-4
[15] = system: OVCAR-8
[16] = system: SF-268
[17] = system: SK-MEL-2
[18] = system: SK-OV-3
[19] = system: SW-620
[20] = system: T47D

Measured: GI50

COc1ccc(/C=C2\CCC(CN(C)C)C2=O)cc1OC (stereo not given)
inactive: [1] 14.6 µM | [2] 17.2 µM | [3] 16.1 µM | [4] 5.83 µM | [5] 18.8 µM | [6] 5.61 µM | [7] 1.91 µM | [8] 2.56 µM | [9] 5.55 µM | [10] 13.2 µM | [11] 7.82 µM | [12] 11.1 µM | [13] 2.49 µM | [14] 7.64 µM | [15] 2.9 µM | [16] 10.7 µM | [17] 11.5 µM | [18] 19.1 µM | [19] 1.82 µM | [20] 5.41 µM

CCCCc1ccc(Nc2nc(Cl)c3ncn(COCCOC(C)=O)c3n2)cc1
inactive: [1] 25.5 µM | [2] 20.8 µM | [3] 6.19 µM | [4] 11.9 µM | [5] 17.1 µM | [6] 17.3 µM | [7] 14.8 µM | [8] 27.4 µM | [9] 18.5 µM | [10] 21.5 µM | [11] 16.2 µM | [12] 17.6 µM | [13] 20 µM | [14] 33.7 µM | [15] 18.5 µM | [16] 19.4 µM | [17] 14.8 µM | [18] 19.6 µM | [19] 21.1 µM | [20] 22.8 µM

COc1ccccc1/N=N/C(=N\NC(=O)c1ccc(C)cc1)c1ccc(N(CCC#N)CCC#N)cc1C
inactive: [1] 51.8 µM | [2] 40.9 µM | [3] > 100 µM | [4] 42.6 µM | [5] 50.9 µM | [6] 39.7 µM | [7] 40.9 µM | [8] 34.6 µM | [9] 39.5 µM | [10] 2.19 µM | [11] 28.2 µM | [12] 32.3 µM | [13] 63 µM | [14] 43.6 µM | [15] 42.3 µM | [16] 38.1 µM | [17] 36.4 µM | [18] 32.5 µM | [19] 47.5 µM | [20] 20.8 µM

Source: ChEMBL document CHEMBL1201862, “PubChem BioAssay data set” (2004)
